Results reported in ChEMBL document CHEMBL1201862, “PubChem BioAssay data set” (2004).
Blank lines part the entries; values can stand above or below the molecule they belong to. Calls of active or inactive are those of the source.

Key:
[1] = biological target: T1, Ubiquitin-conjugating enzyme E2 N (Homo sapiens, UniProt P61088); type: functional;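 further: Dose-response confirmation in a TR-FRET assay detecting UBC13-driven polyubiquitin chain formation, inhibition measured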
T1 sequence (P61088 whole entry): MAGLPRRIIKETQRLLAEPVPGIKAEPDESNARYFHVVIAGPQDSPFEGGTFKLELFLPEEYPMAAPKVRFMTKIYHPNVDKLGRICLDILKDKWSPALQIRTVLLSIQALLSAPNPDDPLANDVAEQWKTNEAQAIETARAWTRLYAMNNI

H9c2 = experiment: cells; type: functional, cell-based; details: Rattus norvegicus, H9c2, Myocardium;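 further: confirmatory concentration-response retest of ultra-high-throughput screening hits for modulation of myocardial damage; cell death induced by hydrogen peroxide oxidative stress; compound pretreatment for 60 min then peroxide exposure for 2 h; potency is for protecting the cells against peroxide damage rather than for killing them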
Protein skinhead-1 = biological target: T2, Protein skinhead-1 (Caenorhabditis elegans, UniProt P34707); type: functional
T2 sequence (P34707 whole entry): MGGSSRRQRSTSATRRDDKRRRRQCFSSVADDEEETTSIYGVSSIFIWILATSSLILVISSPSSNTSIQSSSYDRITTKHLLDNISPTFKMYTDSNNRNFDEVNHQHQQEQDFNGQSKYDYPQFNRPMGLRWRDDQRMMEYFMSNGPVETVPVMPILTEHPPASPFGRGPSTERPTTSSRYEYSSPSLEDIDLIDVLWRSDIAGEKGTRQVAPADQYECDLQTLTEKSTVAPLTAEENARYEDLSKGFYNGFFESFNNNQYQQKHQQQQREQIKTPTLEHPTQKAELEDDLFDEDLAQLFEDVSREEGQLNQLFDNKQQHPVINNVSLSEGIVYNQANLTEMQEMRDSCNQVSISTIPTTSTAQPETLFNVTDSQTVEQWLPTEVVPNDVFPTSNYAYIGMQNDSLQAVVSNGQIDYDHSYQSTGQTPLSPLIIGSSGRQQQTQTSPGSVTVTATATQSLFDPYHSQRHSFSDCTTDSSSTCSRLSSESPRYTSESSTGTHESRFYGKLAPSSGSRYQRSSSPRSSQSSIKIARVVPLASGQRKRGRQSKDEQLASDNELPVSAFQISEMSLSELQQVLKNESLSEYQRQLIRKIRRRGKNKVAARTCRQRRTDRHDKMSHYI

[2] = biological target: T3, Rac GTPase-activating protein 1 (Homo sapiens, UniProt Q9H0H5); experiment: blockers of MgcRacGAP-driven Rac1 GTP hydrolysis – biochemical, ADP Hunter fluorescence, primary and confirmatory, confirmation (AID 624330); type: functional
T3 sequence (Q9H0H5 whole entry): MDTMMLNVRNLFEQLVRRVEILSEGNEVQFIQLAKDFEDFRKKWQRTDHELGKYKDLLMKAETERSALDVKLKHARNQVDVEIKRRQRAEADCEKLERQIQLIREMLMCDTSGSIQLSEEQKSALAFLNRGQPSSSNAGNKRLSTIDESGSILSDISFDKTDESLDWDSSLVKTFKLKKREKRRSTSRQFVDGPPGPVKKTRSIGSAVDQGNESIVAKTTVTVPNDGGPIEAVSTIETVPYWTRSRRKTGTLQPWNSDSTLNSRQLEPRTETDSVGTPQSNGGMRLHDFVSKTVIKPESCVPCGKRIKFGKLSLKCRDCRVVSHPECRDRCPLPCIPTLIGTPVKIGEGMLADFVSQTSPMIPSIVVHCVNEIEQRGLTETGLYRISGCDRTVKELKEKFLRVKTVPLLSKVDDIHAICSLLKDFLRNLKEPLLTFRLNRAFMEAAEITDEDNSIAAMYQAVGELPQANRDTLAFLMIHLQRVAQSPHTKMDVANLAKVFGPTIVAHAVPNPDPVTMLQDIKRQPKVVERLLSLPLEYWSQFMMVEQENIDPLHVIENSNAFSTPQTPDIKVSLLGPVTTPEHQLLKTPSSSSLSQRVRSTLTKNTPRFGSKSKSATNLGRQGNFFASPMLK

Fatty acid synthase [3] = biological target: T4, Fatty acid synthase (Homo sapiens, UniProt P49327); experiment: inhibition of human FAS-TE enzyme activity – biochemical, endpoint fluorescence intensity, uHTS hits, dose response (AID 624327); type: functional;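 further: fluorescence from hydrolysis of an O-methyl fluorescein acyl ester substrate by the enzyme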
T4 sequence (P49327 whole entry): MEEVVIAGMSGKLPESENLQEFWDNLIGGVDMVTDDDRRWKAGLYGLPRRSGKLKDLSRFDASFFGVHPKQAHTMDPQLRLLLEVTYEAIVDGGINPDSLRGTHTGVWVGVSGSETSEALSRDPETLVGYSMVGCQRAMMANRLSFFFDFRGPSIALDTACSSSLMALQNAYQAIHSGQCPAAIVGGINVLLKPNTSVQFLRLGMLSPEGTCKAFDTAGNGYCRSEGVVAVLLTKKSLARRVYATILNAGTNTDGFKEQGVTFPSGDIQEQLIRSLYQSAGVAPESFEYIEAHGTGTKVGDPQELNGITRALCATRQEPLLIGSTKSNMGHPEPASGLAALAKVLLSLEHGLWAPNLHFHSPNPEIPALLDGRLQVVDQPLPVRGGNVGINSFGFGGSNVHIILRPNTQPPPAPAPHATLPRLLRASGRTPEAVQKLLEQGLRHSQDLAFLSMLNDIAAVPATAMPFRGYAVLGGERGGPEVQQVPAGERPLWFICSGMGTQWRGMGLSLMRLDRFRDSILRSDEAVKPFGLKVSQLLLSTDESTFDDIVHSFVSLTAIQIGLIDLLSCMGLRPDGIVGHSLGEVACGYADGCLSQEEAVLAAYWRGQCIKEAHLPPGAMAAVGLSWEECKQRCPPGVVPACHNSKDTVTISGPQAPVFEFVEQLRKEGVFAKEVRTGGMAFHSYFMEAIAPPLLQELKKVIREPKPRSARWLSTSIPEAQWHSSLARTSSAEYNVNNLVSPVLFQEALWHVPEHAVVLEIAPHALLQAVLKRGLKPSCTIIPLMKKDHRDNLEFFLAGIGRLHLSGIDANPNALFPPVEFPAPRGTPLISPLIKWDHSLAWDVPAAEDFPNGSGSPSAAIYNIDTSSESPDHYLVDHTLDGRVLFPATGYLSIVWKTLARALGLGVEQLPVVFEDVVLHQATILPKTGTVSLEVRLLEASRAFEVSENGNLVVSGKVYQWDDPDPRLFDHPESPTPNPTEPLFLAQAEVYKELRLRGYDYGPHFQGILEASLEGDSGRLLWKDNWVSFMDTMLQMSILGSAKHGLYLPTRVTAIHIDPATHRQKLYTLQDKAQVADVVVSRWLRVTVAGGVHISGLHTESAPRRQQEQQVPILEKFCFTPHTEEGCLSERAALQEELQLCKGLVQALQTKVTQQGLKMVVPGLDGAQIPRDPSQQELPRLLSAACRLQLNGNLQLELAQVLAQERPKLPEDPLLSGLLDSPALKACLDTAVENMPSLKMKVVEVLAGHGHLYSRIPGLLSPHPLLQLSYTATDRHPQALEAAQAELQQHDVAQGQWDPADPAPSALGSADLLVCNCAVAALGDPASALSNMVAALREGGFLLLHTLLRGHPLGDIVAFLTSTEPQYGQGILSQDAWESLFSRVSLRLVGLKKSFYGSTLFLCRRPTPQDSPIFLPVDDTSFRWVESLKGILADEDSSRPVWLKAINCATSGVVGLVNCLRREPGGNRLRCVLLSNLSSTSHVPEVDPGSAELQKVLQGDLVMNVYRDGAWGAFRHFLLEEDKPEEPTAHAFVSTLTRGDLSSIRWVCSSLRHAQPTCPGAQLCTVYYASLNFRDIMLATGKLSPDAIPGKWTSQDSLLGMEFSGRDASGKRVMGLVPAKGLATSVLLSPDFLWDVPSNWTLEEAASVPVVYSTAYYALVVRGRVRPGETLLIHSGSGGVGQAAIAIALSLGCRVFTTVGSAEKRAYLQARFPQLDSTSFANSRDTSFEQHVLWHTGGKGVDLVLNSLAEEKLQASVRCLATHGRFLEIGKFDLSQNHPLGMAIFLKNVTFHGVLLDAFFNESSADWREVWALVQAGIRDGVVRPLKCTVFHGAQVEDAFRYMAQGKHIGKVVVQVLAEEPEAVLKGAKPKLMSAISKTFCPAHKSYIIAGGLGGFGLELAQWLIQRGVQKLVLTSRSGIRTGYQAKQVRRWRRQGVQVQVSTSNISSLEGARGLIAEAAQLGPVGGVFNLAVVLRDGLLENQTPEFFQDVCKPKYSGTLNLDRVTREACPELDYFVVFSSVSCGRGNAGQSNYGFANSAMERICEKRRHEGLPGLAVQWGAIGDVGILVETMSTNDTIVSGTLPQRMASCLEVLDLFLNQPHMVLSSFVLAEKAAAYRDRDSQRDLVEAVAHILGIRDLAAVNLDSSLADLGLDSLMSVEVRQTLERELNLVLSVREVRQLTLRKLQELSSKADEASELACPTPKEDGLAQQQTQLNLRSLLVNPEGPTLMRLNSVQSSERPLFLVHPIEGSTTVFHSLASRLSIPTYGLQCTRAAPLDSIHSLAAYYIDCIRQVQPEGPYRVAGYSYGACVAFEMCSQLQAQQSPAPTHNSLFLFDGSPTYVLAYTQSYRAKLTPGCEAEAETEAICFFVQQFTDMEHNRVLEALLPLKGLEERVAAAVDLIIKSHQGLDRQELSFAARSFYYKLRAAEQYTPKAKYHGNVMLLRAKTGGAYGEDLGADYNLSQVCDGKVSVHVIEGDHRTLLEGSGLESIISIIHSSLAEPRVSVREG

Fatty acid synthase [4] = biological target: T4, Fatty acid synthase; experiment: inhibition of human FAS-TE enzyme activity – biochemical, kinetic fluorescence intensity, dose response (AID 624326); type: functional;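 further: rate of fluorescence rise from hydrolysis of a fluorogenic O-methyl fluorescein ester substrate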
[5] = biological target: T5, Polyadenylate-binding protein 1 (Homo sapiens, UniProt P11940); experiment: MLLE binding blockers, Cy5 peptide tracer – biochemical, fluorescence polarization, Cy5-PAM2 peptide, secondary, miRNA deadenylation inhibitor project, dose response (AID 602260); type: functional; details: read-out: IC50_Mean
T5 sequence (P11940 whole entry, the tested form may be a part): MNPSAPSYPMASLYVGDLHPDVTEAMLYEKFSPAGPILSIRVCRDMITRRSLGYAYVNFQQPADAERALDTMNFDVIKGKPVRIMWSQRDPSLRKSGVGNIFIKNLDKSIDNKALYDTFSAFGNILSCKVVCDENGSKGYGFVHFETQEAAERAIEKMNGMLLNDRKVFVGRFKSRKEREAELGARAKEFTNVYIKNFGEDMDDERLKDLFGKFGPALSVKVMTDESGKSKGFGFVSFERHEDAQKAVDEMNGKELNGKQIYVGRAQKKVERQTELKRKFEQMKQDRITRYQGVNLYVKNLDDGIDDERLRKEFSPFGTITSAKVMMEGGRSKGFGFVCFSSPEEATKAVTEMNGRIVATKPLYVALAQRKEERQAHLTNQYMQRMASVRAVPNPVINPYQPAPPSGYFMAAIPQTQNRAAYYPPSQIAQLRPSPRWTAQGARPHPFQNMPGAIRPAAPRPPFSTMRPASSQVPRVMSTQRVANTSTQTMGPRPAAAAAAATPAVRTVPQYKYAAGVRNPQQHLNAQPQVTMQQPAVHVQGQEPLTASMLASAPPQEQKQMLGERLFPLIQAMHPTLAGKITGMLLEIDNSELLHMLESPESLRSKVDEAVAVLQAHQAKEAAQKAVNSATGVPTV

[6] = biological target: T5, Polyadenylate-binding protein 1; experiment: MLLE domain peptide-binding blockers, IC50 – biochemical, fluorescence polarization, FITC-PAM2 peptide, dose response (AID 602259); type: functional; details: read-out: IC50_Mean
[7] = Trypanosoma cruzi growth suppression in host cells – NIH3T3 host cells, beta-gal luminescence, confirmation (AID 2044); type: functional, cell-based;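 further: intracellular parasites grown in NIH/3T3 mouse fibroblasts as host cells; luminescent beta-galactosidase reporter signal from transgenic T. cruzi replicating inside host cells; inhibitors lower the luminescence signal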
[8] = NIH3T3 cell viability loss – ATP luminescence, mouse fibroblasts, counter-screen, dose response (AID 2010); type: functional, cell-based;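 further: cells exposed to compound for about 90 hours before reading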

- IC50 [1]: > 20 µM (inactive)
SMILES: COc1ccc(C(=O)Nc2ccc3oc(-c4cccc(F)c4)nc3c2)cc1OC

- IC50 (Protein skinhead-1): > 100 µM (inactive)
SMILES: COc1ccc(NS(=O)(=O)c2cccc(-c3nnc(-c4ccccc4)o3)c2)cc1

- IC50 (Protein skinhead-1): > 100 µM (inactive)
SMILES: CCOC(=O)C1CCN(C(=O)c2ccc3c(c2)S(=O)(=O)c2ccccc2C3=O)CC1

- IC50 (Protein skinhead-1): > 100 µM (inactive)
SMILES: CCCc1cc(C(=O)Nc2ccc(Cl)cn2)cs1

- IC50 (Protein skinhead-1): > 100 µM (inactive)
- IC50 [2]: 74.3 µM (active)
SMILES: Nn1c(=S)[nH]c2sc3c(c2c1=O)CCCC3

- IC50 (Fatty acid synthase [3]): 2.11 µM (active)
- IC50 (Fatty acid synthase [4]): 3.55 µM (active)
SMILES: COc1ccc(-c2nnc(SCC(=O)Nc3ncc(C(F)(F)F)cc3Cl)n2CC(C)C)cc1

- IC50 (Fatty acid synthase [3]): 14.6 µM (active)
- IC50 (Fatty acid synthase [4]): 20.7 µM (inactive)
SMILES: Cc1cccc(NC(=O)CNC(=O)COC(=O)c2ccc(C(C)(C)C)cc2)c1C

- IC50 (Protein skinhead-1): > 100 µM (inactive)
SMILES: COc1ccc(C(O)CNc2ccc(C)cc2)cc1 (stereo unspecified)

- IC50 (Fatty acid synthase [3]): 6.12 µM (active)
- IC50 (Fatty acid synthase [4]): 7.21 µM (active)
SMILES: O=C(NC1CCCCC1)N(c1ccccc1)c1nnc(-c2cccc([N+](=O)[O-])c2)s1

- IC50 (Fatty acid synthase [3]): 7.65 µM (active)
- IC50 (Fatty acid synthase [4]): 9.44 µM (active)
SMILES: O=C(CSc1ncnc2c1cnn2-c1ccccc1)NC1CCS(=O)(=O)C1 (stereo unspecified)

- IC50 [1]: > 20 µM (inactive)
SMILES: COc1ccc(CCNC(=O)Cn2c(=O)n(-c3ccc(C)c(F)c3)c(=O)c3sccc32)cc1OC

- IC50 [5]: > 66 µM (inactive)
- IC50 [6]: > 66 µM (inactive)
SMILES: COc1ccc(OC)c(S(=O)(=O)N2CCCCC2C(=O)N2CCN(c3ccccn3)CC2)c1 (stereo unspecified)

Further lines, the molecule ahead of its results:

SMILES: CCCN1C(=O)/C(=C/c2nc(O)c3ccccc3n2)c2ccccc21
- IC50 (H9c2): > 79 µM (inactive)

SMILES: Brc1ccc(-c2ccc(/C=N/Nc3nc(N4CCOCC4)nc(N4CCOCC4)n3)o2)cc1
- IC50 (H9c2): > 79 µM (inactive)

SMILES: O=C(COc1cccc2c1CCNC2=O)Nc1ccc(F)cc1
- IC50 (H9c2): 37.2 µM (inactive)

SMILES: Cc1ccc(-c2csc(N3CCC[C@@H]3C(=O)NCCn3c(-c4ccncc4)nc4ccccc43)n2)cc1
- IC50 (H9c2): > 79 µM (inactive)

SMILES: NC(=NOC(=O)CCC1CCCCC1)c1cccc([N+](=O)[O-])c1
- IC50 (Fatty acid synthase [3]): 6.09 µM (active)
- IC50 (Fatty acid synthase [4]): 6 µM (active)

SMILES: COC(=O)c1cc(C(=O)OCC(=O)c2ccc3c(c2)NC(=O)CO3)cc([N+](=O)[O-])c1
- IC50 (Fatty acid synthase [3]): 13.6 µM (active)
- IC50 (Fatty acid synthase [4]): 30.9 µM (inactive)

SMILES: O=C(NCC(=O)N(Cc1cccs1)C(C(=O)NC1CCCC1)c1ccco1)c1cccs1 (stereo unspecified)
- IC50 (H9c2): > 79 µM (inactive)

SMILES: O=c1c2ccccc2oc2nc(-c3ccco3)n(Cc3ccccc3)c(=O)c12
- IC50 (H9c2): > 79 µM (inactive)

SMILES: CCN(CC)CCNC(=O)c1cc2c(s1)-c1ccccc1SC2
- EC50 [7]: 2.27 µM (active)
- EC50 [8]: 7.38 µM (active)
- IC50 [1]: > 20 µM (inactive)
